Test results taken from paper PMC3389279 (Bioorganic & medicinal chemistry letters, 2012).
Entries after “also recorded” stand apart in the source; their conditions may differ.

How the values were obtained:
KCC2 [1] = target: T1, KCC2 (Homo sapiens, UniProt Q9H2X9); test: 86Rb uptake assay in KCC2-overexpressing HEK293 cells; assay type: cell-based; details: first generation libraries, 2-pyridyl-based analogs
T1 sequence (Q9H2X9 1-1139): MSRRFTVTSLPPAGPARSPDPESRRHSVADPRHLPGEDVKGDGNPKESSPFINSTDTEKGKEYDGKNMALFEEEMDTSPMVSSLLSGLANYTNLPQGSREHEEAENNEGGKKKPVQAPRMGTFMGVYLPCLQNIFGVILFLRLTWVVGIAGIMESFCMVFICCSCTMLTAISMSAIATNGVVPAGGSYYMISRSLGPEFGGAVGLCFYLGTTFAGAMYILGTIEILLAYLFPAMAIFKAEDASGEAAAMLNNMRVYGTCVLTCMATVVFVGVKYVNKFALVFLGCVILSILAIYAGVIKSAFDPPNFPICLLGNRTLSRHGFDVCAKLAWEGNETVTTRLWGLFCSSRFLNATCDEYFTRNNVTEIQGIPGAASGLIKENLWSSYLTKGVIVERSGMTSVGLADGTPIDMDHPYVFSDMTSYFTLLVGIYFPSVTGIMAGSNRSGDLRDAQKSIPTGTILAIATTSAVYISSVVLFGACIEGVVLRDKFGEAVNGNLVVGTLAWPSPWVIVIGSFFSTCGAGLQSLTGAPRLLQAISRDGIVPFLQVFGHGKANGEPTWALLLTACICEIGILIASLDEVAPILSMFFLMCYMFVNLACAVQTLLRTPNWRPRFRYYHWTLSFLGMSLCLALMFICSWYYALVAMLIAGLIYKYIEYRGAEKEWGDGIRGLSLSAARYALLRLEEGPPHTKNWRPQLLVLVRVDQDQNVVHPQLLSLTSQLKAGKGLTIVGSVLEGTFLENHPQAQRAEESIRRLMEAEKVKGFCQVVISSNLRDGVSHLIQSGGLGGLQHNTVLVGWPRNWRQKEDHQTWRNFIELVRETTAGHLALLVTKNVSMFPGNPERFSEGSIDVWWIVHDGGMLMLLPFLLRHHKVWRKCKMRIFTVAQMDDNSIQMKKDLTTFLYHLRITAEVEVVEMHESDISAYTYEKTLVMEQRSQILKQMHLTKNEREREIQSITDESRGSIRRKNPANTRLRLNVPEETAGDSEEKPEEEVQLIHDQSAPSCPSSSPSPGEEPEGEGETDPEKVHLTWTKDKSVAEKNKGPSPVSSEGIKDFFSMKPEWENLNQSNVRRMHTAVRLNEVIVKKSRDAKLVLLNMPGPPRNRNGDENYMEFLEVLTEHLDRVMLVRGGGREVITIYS

NKCC1 [2] = target: T2, NKCC1 (Homo sapiens, UniProt P55011); details: KCC2 versus NKCC1; cited from earlier work
T2 sequence (P55011 1-1212): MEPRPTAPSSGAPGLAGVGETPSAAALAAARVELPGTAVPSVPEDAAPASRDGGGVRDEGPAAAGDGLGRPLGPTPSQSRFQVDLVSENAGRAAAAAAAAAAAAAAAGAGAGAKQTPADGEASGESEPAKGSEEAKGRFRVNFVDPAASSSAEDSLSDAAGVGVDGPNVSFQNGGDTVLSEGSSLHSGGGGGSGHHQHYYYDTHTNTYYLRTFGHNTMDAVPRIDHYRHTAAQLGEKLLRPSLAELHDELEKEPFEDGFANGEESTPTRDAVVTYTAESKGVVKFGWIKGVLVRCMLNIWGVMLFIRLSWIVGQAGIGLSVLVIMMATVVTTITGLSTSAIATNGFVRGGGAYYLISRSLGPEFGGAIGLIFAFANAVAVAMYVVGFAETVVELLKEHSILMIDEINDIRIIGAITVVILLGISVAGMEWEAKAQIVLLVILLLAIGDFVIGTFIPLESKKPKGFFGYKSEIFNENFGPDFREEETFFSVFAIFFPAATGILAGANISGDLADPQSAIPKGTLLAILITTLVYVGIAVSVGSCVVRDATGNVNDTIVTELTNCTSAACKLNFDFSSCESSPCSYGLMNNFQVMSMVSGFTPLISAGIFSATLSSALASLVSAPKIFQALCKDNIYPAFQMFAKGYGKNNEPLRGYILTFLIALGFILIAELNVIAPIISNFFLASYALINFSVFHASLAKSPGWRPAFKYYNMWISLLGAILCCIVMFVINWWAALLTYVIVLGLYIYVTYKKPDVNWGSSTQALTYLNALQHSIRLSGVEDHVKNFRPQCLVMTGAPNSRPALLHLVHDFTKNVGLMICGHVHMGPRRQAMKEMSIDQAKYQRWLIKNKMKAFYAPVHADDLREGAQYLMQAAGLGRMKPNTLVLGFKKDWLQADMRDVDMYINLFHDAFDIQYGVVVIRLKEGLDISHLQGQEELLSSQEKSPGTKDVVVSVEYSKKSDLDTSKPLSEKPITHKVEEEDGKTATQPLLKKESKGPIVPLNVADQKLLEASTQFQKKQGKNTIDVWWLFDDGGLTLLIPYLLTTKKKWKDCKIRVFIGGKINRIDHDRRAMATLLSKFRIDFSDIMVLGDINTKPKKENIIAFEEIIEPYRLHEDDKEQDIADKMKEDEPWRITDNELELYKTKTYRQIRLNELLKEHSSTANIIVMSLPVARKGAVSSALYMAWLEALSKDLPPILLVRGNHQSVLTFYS

[3] = system: 68 GPCRs, ion channels and transporters; test: Lead Profiling screen at Ricerca, radioligand binding assays
NKCC1 [4] = target: T2, NKCC1; test: 86Rb uptake assay, NKCC1 function; assay type: cell-based; details: concentrations up to 100 µM
[5] = Intrinsic clearance in human liver microsomes; assay type: in vitro ADME
[6] = Intrinsic clearance in rat liver microsomes; assay type: in vitro ADME
KCC2 [7] = target: T1, KCC2; details: intrathecal injection; cited from earlier work

KCC2 antagonist activity (in words) (KCC2 [1]) | SMILES | selectivity versus NKCC1 (NKCC1 [2]) [fold] | inhibition of NKCC1 function (in words) (NKCC1 [4]) | also measured
weak | Cc1csc(N(C)C(=O)CSc2ccc(-c3ccccc3)cn2)n1 [compound 10] |  |  | 
 | Cc1csc(NC(=O)CSc2ccc(-c3ccccc3)nn2)n1 [compound 1] | > 100 |  | 
weak | Cc1csc(NC(=O)CSc2ccc(-c3ccccc3)cn2)n1 [compound 9] |  |  | 
 | Cc1csc(N(C(=O)CSc2ccc(-c3ccccc3)nn2)C2CC2)n1 [11k] |  | weak, partial inhibition; also recorded: weak partial inhibition | inhibition in ancillary pharmacology panel ([3]; 10 µM, 68 targets): ≤ 50%; activity in ancillary pharmacology panel (in words) ([3]; panel of 68 GPCRs, ion channels and transporters): no activity; Intrinsic clearance (in words) [5]: rapidly cleared in vitro
 | Cc1csc(N(C)C(=O)CSc2ccc(-c3ccccc3)nn2)n1 [compound 2] | > 100 | weak, partial inhibition; also recorded: weak partial inhibition | CLint scaled [6]: 294 mL/min/kg; block of KCC2 in spinal cord (in words) (KCC2 [7]): used successfully to block KCC2 in spinal cord; CLint scaled [5]: 229 mL/min/kg
